Test results published in patent US20230085307A1, “PYRIDAZINONE COMPOUND AND HERBICIDE” (NISSAN CHEMICAL CORPORATION, priority 2019, published 2023).

Assays:
late watergrass = experiment: Test Example 1: herbicidal activity, application before weed generation under submerged conditions (Table 16, symbol A); assay type: in vivo, late watergrass (Echinochloa oryzicola)
How it was run: (§1)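 Alluvial soil was flooded to 4 cm depth, weed seeds were sown mixed and 2.5-leaf rice seedlings were transplanted. On sowing day, the compound's emulsion, diluted in water to a set dose, was applied to the water surface. Plants grew at 25–30 °C and were scored 0–5 after three weeks.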

Japanese bulrush = experiment: Test Example 1: herbicidal activity, application before weed generation under submerged conditions (Table 16, symbol B); assay type: in vivo, Japanese bulrush (Schoenoplectus juncoides)
How it was run: as §1

oval-leafed pondweed = experiment: Test Example 1: herbicidal activity, application before weed generation under submerged conditions (Table 16, symbol C); assay type: in vivo, oval-leafed pondweed (Monochoria vaginalis)
How it was run: as §1

barnyard grass [1] = experiment: Test Example 3: herbicidal effect by foliage application, Wagner pot (Table 18, symbol H); assay type: in vivo, barnyard grass (Echinochloa crus-galli)
How it was run: (§2)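 Plants were sown in alluvial soil held under 0.1–0.5 cm standing water and grown 14 days in a greenhouse at 25–30 °C. An emulsifiable formulation, water-diluted to the set dose, was then sprayed onto the foliage, and effects were scored three weeks later using previously defined criteria.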

Chinese sprangletop = experiment: Test Example 3: herbicidal effect by foliage application, Wagner pot (Table 18, symbol D); assay type: in vivo, chinese sprangletop (Leptochloa chinensis)
How it was run: as §2

rice flat sedge = experiment: Test Example 3: herbicidal effect by foliage application, Wagner pot (Table 18, symbol E); assay type: in vivo, rice flat sedge (Cyperus iria)
How it was run: as §2

southern crabgrass [2] = experiment: Test Example 4: herbicidal effect by soil treatment (Table 19, symbol F); assay type: in vivo, southern crabgrass (Digitaria ciliaris)
How it was run: (§3)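 Soil-surface application: an emulsion agent diluted with water to the predetermined dose is sprayed uniformly over seeds lying under roughly 1.5 cm of sterilized diluvial soil. Boxes stay in a greenhouse at 25° C. to 30° C. Three weeks later, each species is graded on previously defined criteria.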

green foxtail [3] = experiment: Test Example 4: herbicidal effect by soil treatment (Table 19, symbol G); assay type: in vivo, green foxtail (Setaria viridis)
How it was run: as §3

barnyard grass [4] = experiment: Test Example 4: herbicidal effect by soil treatment (Table 19, symbol H); assay type: in vivo, barnyard grass (Echinochloa crus-galli)
How it was run: as §3

wild oat [5] = experiment: Test Example 4: herbicidal effect by soil treatment (Table 19, symbol I); assay type: in vivo, wild oat (Avena fatua)
How it was run: as §3

blackgrass [6] = experiment: Test Example 4: herbicidal effect by soil treatment (Table 19, symbol J); assay type: in vivo, blackgrass (Alopecurus myosuroides)
How it was run: as §3

Italian ryegrass [7] = experiment: Test Example 4: herbicidal effect by soil treatment (Table 19, symbol K); assay type: in vivo, Italian ryegrass (Lolium multiflorum)
How it was run: as §3

windgrass [8] = experiment: Test Example 4: herbicidal effect by soil treatment (Table 19, symbol L); assay type: in vivo, windgrass (Apera spica-venti)
How it was run: as §3

velvetleaf [9] = experiment: Test Example 4: herbicidal effect by soil treatment (Table 19, symbol M); assay type: in vivo, velvetleaf (Abutilon theophrasti)
How it was run: as §3

redroot pigweed [10] = experiment: Test Example 4: herbicidal effect by soil treatment (Table 19, symbol N); assay type: in vivo, redroot pigweed (Amaranthus retroflexus)
How it was run: as §3

lambsquarters [11] = experiment: Test Example 4: herbicidal effect by soil treatment (Table 19, symbol O); assay type: in vivo, lambsquarters (Chenopodium album)
How it was run: as §3

chickweed [12] = experiment: Test Example 4: herbicidal effect by soil treatment (Table 19, symbol P); assay type: in vivo, common chickweed (Stellaria media)
How it was run: as §3

persian speedwell [13] = experiment: Test Example 4: herbicidal effect by soil treatment (Table 19, symbol R); assay type: in vivo, Persian speedwell (Veronica persica)
How it was run: as §3

southern crabgrass [14] = experiment: Test Example 5: herbicidal effect by foliage application, plastic box (Table 20, symbol F); assay type: in vivo, southern crabgrass (Digitaria ciliaris)
How it was run: (§4)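 Sow seeds spot-wise in sterilized diluvial soil; cover with ~1.5 cm soil. Grow 14 days in greenhouse, 25° C. to 30° C. Spray foliage with emulsion diluted to predetermined amount. Rate effect after 3 weeks.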

green foxtail [15] = experiment: Test Example 5: herbicidal effect by foliage application, plastic box (Table 20, symbol G); assay type: in vivo, green foxtail (Setaria viridis)
How it was run: as §4

barnyard grass [16] = experiment: Test Example 5: herbicidal effect by foliage application, plastic box (Table 20, symbol H); assay type: in vivo, barnyard grass (Echinochloa crus-galli)
How it was run: as §4

wild oat [17] = experiment: Test Example 5: herbicidal effect by foliage application, plastic box (Table 20, symbol I); assay type: in vivo, wild oat (Avena fatua)
How it was run: as §4

blackgrass [18] = experiment: Test Example 5: herbicidal effect by foliage application, plastic box (Table 20, symbol J); assay type: in vivo, blackgrass (Alopecurus myosuroides)
How it was run: as §4

Italian ryegrass [19] = experiment: Test Example 5: herbicidal effect by foliage application, plastic box (Table 20, symbol K); assay type: in vivo, Italian ryegrass (Lolium multiflorum)
How it was run: as §4

windgrass [20] = experiment: Test Example 5: herbicidal effect by foliage application, plastic box (Table 20, symbol L); assay type: in vivo, windgrass (Apera spica-venti)
How it was run: as §4

velvetleaf [21] = experiment: Test Example 5: herbicidal effect by foliage application, plastic box (Table 20, symbol M); assay type: in vivo, velvetleaf (Abutilon theophrasti)
How it was run: as §4

redroot pigweed [22] = experiment: Test Example 5: herbicidal effect by foliage application, plastic box (Table 20, symbol N); assay type: in vivo, redroot pigweed (Amaranthus retroflexus)
How it was run: as §4

lambsquarters [23] = experiment: Test Example 5: herbicidal effect by foliage application, plastic box (Table 20, symbol O); assay type: in vivo, lambsquarters (Chenopodium album)
How it was run: as §4

chickweed [24] = experiment: Test Example 5: herbicidal effect by foliage application, plastic box (Table 20, symbol P); assay type: in vivo, common chickweed (Stellaria media)
How it was run: as §4

persian speedwell [25] = experiment: Test Example 5: herbicidal effect by foliage application, plastic box (Table 20, symbol R); assay type: in vivo, Persian speedwell (Veronica persica)
How it was run: as §4

[26] = amount of applied herbicide 320 g/ha
[27] = 320 g/ha, foliage application after 14-day growth, evaluated three weeks after application
[28] = amount of applied herbicide 272 g/ha
[29] = foliage application, 272 g/ha, three weeks after application

CCOc1cc(F)ccc1-c1sc2c(Cl)cccc2c1-c1c(O)c(C)nn(C)c1=O [4-035]
Herbicidal effect, A: late watergrass (late watergrass; [26]): 2 (Herbicidal rate of 20% or more and less than 40%)
Herbicidal effect, B: Japanese bulrush (Japanese bulrush; [26]): 0 (Herbicidal rate of 5% or less (almost no effect))
Herbicidal effect, C: oval-leafed pondweed (oval-leafed pondweed; [26]): 0 (Herbicidal rate of 5% or less (almost no effect))
herbicidal effect on barnyard grass (H) (barnyard grass [1]; 320 g/ha): 5 (Herbicidal rate of 90% or more (almost completely withered))
herbicidal effect on Chinese sprangletop (D) (Chinese sprangletop; 320 g/ha): 3 (Herbicidal rate of 40% or more and less than 70%)
herbicidal effect on rice flat sedge (E) (rice flat sedge; 320 g/ha): 5 (Herbicidal rate of 90% or more (almost completely withered))
Herbicidal effect by soil treatment, F: southern crabgrass (southern crabgrass [2]; [26]): 4 (Herbicidal rate of 70% or more and less than 90%)
Herbicidal effect by soil treatment, G: green foxtail (green foxtail [3]; [26]): 3 (Herbicidal rate of 40% or more and less than 70%)
Herbicidal effect by soil treatment, H: barnyard grass (barnyard grass [4]; [26]): 5 (Herbicidal rate of 90% or more (almost completely withered))
Herbicidal effect by soil treatment, I: wild oat (wild oat [5]; [26]): 0 (Herbicidal rate of 5% or less (almost no effect))
Herbicidal effect by soil treatment, J: blackgrass (blackgrass [6]; [26]): 0 (Herbicidal rate of 5% or less (almost no effect))
Herbicidal effect by soil treatment, K: Italian ryegrass (Italian ryegrass [7]; [26]): 0 (Herbicidal rate of 5% or less (almost no effect))
Herbicidal effect by soil treatment, L: windgrass (windgrass [8]; [26]): 0 (Herbicidal rate of 5% or less (almost no effect))
Herbicidal effect by soil treatment, M: velvetleaf (velvetleaf [9]; [26]): 2 (Herbicidal rate of 20% or more and less than 40%)
Herbicidal effect by soil treatment, N: redroot pigweed (redroot pigweed [10]; [26]): 3 (Herbicidal rate of 40% or more and less than 70%)
Herbicidal effect by soil treatment, O: lambsquarters (lambsquarters [11]; [26]): 0 (Herbicidal rate of 5% or less (almost no effect))
Herbicidal effect by soil treatment, P: chickweed (chickweed [12]; [26]): 3 (Herbicidal rate of 40% or more and less than 70%)
Herbicidal effect by soil treatment, R: persian speedwell (persian speedwell [13]; [26]): 1 (Herbicidal rate of 5% or more and less than 20%)
herbicidal effect on F: southern crabgrass (evaluation grade 0-5) (southern crabgrass [14]; [27]): 5 (Herbicidal rate of 90% or more (almost completely withered))
herbicidal effect on G: green foxtail (evaluation grade 0-5) (green foxtail [15]; [27]): 5 (Herbicidal rate of 90% or more (almost completely withered))
herbicidal effect on H: barnyard grass (evaluation grade 0-5) (barnyard grass [16]; [27]): 5 (Herbicidal rate of 90% or more (almost completely withered))
herbicidal effect on I: wild oat (evaluation grade 0-5) (wild oat [17]; [27]): 0 (Herbicidal rate of 5% or less (almost no effect))
herbicidal effect on J: blackgrass (evaluation grade 0-5) (blackgrass [18]; [27]): 5 (Herbicidal rate of 90% or more (almost completely withered))
herbicidal effect on K: Italian ryegrass (evaluation grade 0-5) (Italian ryegrass [19]; [27]): 4 (Herbicidal rate of 70% or more and less than 90%)
herbicidal effect on L: windgrass (evaluation grade 0-5) (windgrass [20]; [27]): 5 (Herbicidal rate of 90% or more (almost completely withered))
herbicidal effect on M: velvetleaf (evaluation grade 0-5) (velvetleaf [21]; [27]): 4 (Herbicidal rate of 70% or more and less than 90%)
herbicidal effect on N: redroot pigweed (evaluation grade 0-5) (redroot pigweed [22]; [27]): 5 (Herbicidal rate of 90% or more (almost completely withered))
herbicidal effect on O: lambsquarters (evaluation grade 0-5) (lambsquarters [23]; [27]): 4 (Herbicidal rate of 70% or more and less than 90%)
herbicidal effect on P: chickweed (evaluation grade 0-5) (chickweed [24]; [27]): 4 (Herbicidal rate of 70% or more and less than 90%)
herbicidal effect on R: persian speedwell (evaluation grade 0-5) (persian speedwell [25]; [27]): 5 (Herbicidal rate of 90% or more (almost completely withered))

COc1cc(F)ccc1-c1sc2ccccc2c1-c1c(O)c(C)nn(C)c1=O [1-055]
Herbicidal effect on A: late watergrass (grade 0-5) (late watergrass; 272 g/ha applied herbicide): 4 (Herbicidal rate of 70% or more and less than 90%)
Herbicidal effect on B: Japanese bulrush (grade 0-5) (Japanese bulrush; 272 g/ha applied herbicide): 0 (Herbicidal rate of 5% or less (almost no effect))
Herbicidal effect on C: oval-leafed pondweed (grade 0-5) (oval-leafed pondweed; 272 g/ha applied herbicide): 0 (Herbicidal rate of 5% or less (almost no effect))
herbicidal effect on H (barnyard grass), rating 0-5 (barnyard grass [1]; 272 g/ha): 5 (Herbicidal rate of 90% or more (almost completely withered))
herbicidal effect on D (Chinese sprangletop), rating 0-5 (Chinese sprangletop; 272 g/ha): 2 (Herbicidal rate of 20% or more and less than 40%)
herbicidal effect on E (rice flat sedge), rating 0-5 (rice flat sedge; 272 g/ha): 5 (Herbicidal rate of 90% or more (almost completely withered))
herbicidal effect rating, F: southern crabgrass (southern crabgrass [2]; [28]): 2 (Herbicidal rate of 20% or more and less than 40%)
herbicidal effect rating, G: green foxtail (green foxtail [3]; [28]): 5 (Herbicidal rate of 90% or more (almost completely withered))
herbicidal effect rating, H: barnyard grass (barnyard grass [4]; [28]): 4 (Herbicidal rate of 70% or more and less than 90%)
herbicidal effect rating, I: wild oat (wild oat [5]; [28]): 3 (Herbicidal rate of 40% or more and less than 70%)
herbicidal effect rating, J: blackgrass (blackgrass [6]; [28]): 3 (Herbicidal rate of 40% or more and less than 70%)
herbicidal effect rating, K: Italian ryegrass (Italian ryegrass [7]; [28]): 3 (Herbicidal rate of 40% or more and less than 70%)
herbicidal effect rating, L: windgrass (windgrass [8]; [28]): 3 (Herbicidal rate of 40% or more and less than 70%)
herbicidal effect rating, M: velvetleaf (velvetleaf [9]; [28]): 0 (Herbicidal rate of 5% or less (almost no effect))
herbicidal effect rating, N: redroot pigweed (redroot pigweed [10]; [28]): 5 (Herbicidal rate of 90% or more (almost completely withered))
herbicidal effect rating, O: lambsquarters (lambsquarters [11]; [28]): 4 (Herbicidal rate of 70% or more and less than 90%)
herbicidal effect rating, P: chickweed (chickweed [12]; [28]): 5 (Herbicidal rate of 90% or more (almost completely withered))
herbicidal effect rating, R: persian speedwell (persian speedwell [13]; [28]): 5 (Herbicidal rate of 90% or more (almost completely withered))
herbicidal effect grade, F: southern crabgrass (southern crabgrass [14]; [29]): 4 (Herbicidal rate of 70% or more and less than 90%)
herbicidal effect grade, G: green foxtail (green foxtail [15]; [29]): 4 (Herbicidal rate of 70% or more and less than 90%)
herbicidal effect grade, H: barnyard grass (barnyard grass [16]; [29]): 4 (Herbicidal rate of 70% or more and less than 90%)
herbicidal effect grade, I: wild oat (wild oat [17]; [29]): 5 (Herbicidal rate of 90% or more (almost completely withered))
herbicidal effect grade, J: blackgrass (blackgrass [18]; [29]): 5 (Herbicidal rate of 90% or more (almost completely withered))
herbicidal effect grade, K: Italian ryegrass (Italian ryegrass [19]; [29]): 4 (Herbicidal rate of 70% or more and less than 90%)
herbicidal effect grade, L: windgrass (windgrass [20]; [29]): 5 (Herbicidal rate of 90% or more (almost completely withered))
herbicidal effect grade, M: velvetleaf (velvetleaf [21]; [29]): 3 (Herbicidal rate of 40% or more and less than 70%)
herbicidal effect grade, N: redroot pigweed (redroot pigweed [22]; [29]): 3 (Herbicidal rate of 40% or more and less than 70%)
herbicidal effect grade, O: lambsquarters (lambsquarters [23]; [29]): 2 (Herbicidal rate of 20% or more and less than 40%)
herbicidal effect grade, P: chickweed (chickweed [24]; [29]): 5 (Herbicidal rate of 90% or more (almost completely withered))
herbicidal effect grade, R: persian speedwell (persian speedwell [25]; [29]): 4 (Herbicidal rate of 70% or more and less than 90%)
